These results are taken from patent publication US20220249687A1, “BIS(2-HALOACETAMIDO)-COMPOUNDS FOR USE AS LINKING AGENTS AND RESULTANT PRODUCTS WHICH COMPRISE ANTIBODIES, HALF-ANTIBODIES AND ANTIBODY FRAGMENTS” (THE UNIVERSITY OF BATH, priority 2019, published 2022).

A short description of this experiment: Reactivity of linker compounds with glutathione. The settings on record: pH=7, RT. The protocol: Relative reactivities of the compounds were evaluated towards the small thiol containing peptide glutathione (pH=7, RT). […] Without wishing to be bound by any particular theory, the inventors speculate that the difference in reactivity and stability of the ortho and meta compounds may be attributed to differences in the 3D structures of each compound. Methyl 3,5-bis(2-chloroacetamido)benzoate (1) is predicted to have a planar conformation. Thus, steric hindrance could slow the backside attack of thiolate at the carbon attached to halogen (through an SN2 mechanism). This might explain the greater reactivity of ortho compounds like methyl 3,4-bis(2-chloroacetamido)benzoate (4). Compound (4) is not planar and might afford a more accessible carbon for backside attack.
The reactivity of the linker compounds of the present invention was tested by reaction with glutathione. The following representative reactions are described. Analogous reactions were performed with amide functionalised linker compounds.
The inventors compared the reactivity of various linker compounds of the invention by determining the percentage remaining of the bis-haloacetamide derivatives 14-17 in the presence of glutathione (2.2 equiv.) in aqueous phosphate buffer (100 mM, pH 7.5).

For `COC(=O)c1ccc(NC(=O)CCl)c(NC(=O)CCl)c1` [Compound 4, methyl 3,4-bis(2-chloroacetamido)benzoate], the “relative reactivity towards glutathione (reaction rate)” value is “react significantly faster than the 3,5-bis-Cl compound (1)”.
